Test results: ChEMBL document CHEMBL1201862, “PubChem BioAssay data set” (2004)
Several values for one entry are separate records, joined by “and”; a condition that tells them apart may be missing. Equal entries are not always repeated. Structures can show the parent of a compound that is named as a salt. Activity calls are given as the source filed them.

Experiments:
[1] = molecular target: 5-hydroxytryptamine receptor 2A (Mus musculus, UniProt P35363); type: functional, cell-based;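 further: CHO-K1 cells with tagged receptor and beta-arrestin; agonist potency measured as compound-induced activation of the receptor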
5-hydroxytryptamine receptor 2A, sequence (P35363 whole entry): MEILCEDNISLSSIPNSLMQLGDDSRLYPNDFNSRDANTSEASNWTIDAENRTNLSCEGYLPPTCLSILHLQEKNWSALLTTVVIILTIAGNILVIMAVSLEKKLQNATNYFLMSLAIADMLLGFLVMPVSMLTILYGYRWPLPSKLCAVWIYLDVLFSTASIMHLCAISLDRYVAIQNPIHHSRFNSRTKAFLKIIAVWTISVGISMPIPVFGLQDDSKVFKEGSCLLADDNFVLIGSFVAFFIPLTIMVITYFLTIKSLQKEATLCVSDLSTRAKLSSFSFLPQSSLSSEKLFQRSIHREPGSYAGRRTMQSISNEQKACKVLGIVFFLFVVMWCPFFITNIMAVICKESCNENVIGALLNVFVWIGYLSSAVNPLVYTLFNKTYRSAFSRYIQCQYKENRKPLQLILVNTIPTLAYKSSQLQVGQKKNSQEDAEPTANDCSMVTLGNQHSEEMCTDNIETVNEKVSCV

Mu-type opioid receptor = Mu-type opioid receptor (Homo sapiens, UniProt P35372); type: functional, cell-based;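 further: U2OS cells with beta-arrestin recruitment to OPRM1 by beta-gal complementation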
Mu-type opioid receptor, sequence (P35372 whole entry): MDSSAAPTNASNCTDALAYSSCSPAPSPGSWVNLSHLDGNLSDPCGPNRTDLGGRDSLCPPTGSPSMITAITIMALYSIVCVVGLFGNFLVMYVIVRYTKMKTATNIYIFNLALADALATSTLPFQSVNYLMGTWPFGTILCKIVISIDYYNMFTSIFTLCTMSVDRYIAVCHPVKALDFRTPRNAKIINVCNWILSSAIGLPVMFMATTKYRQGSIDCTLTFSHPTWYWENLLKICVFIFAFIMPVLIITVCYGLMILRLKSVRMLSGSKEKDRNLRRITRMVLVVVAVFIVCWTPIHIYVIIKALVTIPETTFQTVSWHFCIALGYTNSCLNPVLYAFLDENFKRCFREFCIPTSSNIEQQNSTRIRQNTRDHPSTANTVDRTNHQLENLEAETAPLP

H4 = assay: Luminescence Cell-Based Dose Response HTS to Identify Activators of 5'UTR Stem-Loop Driven Prion Protein mRNA Translation in H4 Neuroglioblastoma Cells. [Related pubchem assays: 1829 (Project Summary), 1814 (Primary HTS)]; type: functional; settings: Homo sapiens
[2] = molecular target: T1, DNA repair and recombination protein RAD54-like (Homo sapiens, UniProt Q92698); assay: inhibitors of human RAD54 branch migration, confirmation, biochemical, fluorescence, cherry-picked samples, dose series (AID 651657); type: functional
T1 sequence (Q92698 whole entry): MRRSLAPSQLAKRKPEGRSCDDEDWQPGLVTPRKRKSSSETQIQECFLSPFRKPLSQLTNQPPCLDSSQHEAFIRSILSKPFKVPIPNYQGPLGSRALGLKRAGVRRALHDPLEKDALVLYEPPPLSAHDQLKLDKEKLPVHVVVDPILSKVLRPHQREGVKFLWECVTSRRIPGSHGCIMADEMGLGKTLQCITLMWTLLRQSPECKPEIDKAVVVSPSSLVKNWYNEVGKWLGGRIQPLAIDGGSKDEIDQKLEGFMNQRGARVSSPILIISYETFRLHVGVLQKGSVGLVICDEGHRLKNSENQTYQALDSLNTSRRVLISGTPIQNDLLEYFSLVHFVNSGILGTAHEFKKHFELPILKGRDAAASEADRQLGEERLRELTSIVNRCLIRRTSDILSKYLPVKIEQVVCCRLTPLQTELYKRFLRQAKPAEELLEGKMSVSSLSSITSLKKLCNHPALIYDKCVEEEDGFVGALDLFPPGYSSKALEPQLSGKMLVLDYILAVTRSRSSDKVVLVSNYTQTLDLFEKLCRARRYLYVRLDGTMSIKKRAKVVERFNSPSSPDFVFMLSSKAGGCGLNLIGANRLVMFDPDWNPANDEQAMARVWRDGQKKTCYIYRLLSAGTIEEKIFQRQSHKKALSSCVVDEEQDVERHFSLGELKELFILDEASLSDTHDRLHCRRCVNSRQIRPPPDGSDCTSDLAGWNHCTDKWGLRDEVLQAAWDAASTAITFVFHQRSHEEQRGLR

[3] = Luminescence Cell-Based Dose Response HTS to Identify Activators of Luciferase Translation or Activity in H4 […] Cells. [Related pubchem assays: 1829 (Project Summary), 1814 (Primary HTS)]; type: functional
[4] = Luminescence Cell-Based Dose Confirmation HTS to Identify Activators of 5'UTR Stem-Loop Driven Alpha-Synuclein mRNA Translation in H4 Neuroglioblastoma Cells. [Related pubchem assays: 1829 (Project Summary), 1814 (Primary HTS)]; type: functional
[5] = molecular target: T2, DNA repair protein RAD52 homolog (Homo sapiens, UniProt P43351); type: functional, biochemical
T2 sequence (P43351 whole entry): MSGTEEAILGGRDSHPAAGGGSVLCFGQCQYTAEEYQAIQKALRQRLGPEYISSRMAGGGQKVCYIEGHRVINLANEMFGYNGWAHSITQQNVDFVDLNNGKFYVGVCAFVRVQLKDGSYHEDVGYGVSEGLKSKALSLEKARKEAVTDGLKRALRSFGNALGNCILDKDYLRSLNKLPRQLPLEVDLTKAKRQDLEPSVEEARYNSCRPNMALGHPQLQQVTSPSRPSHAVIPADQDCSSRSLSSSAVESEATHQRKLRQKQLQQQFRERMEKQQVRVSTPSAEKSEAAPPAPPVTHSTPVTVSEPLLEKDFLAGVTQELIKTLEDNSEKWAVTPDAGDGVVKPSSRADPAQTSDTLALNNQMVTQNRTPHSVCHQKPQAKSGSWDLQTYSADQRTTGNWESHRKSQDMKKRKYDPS

H9c2 = assay: cells; type: functional, cell-based; settings: Rattus norvegicus, H9c2, Myocardium;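 further: confirmatory concentration-response retest of ultra-high-throughput screening hits for modulation of myocardial damage; cell death induced by hydrogen peroxide oxidative stress; compound pretreatment for 60 min then peroxide exposure for 2 h; potency is for protecting the cells against peroxide damage rather than for killing them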
[6] = molecular target: T3, Trace amine-associated receptor 1 (Homo sapiens, UniProt Q96RJ0); assay: Counterscreen for agonists of the human trace amine associated receptor 1 (hTAAR1): Fluorescence-based cell-based high throughput dose response assay to identify hTAAR1 agonist that also desensitize TAAR1 receptor response.; type: functional
T3 sequence (Q96RJ0 whole entry): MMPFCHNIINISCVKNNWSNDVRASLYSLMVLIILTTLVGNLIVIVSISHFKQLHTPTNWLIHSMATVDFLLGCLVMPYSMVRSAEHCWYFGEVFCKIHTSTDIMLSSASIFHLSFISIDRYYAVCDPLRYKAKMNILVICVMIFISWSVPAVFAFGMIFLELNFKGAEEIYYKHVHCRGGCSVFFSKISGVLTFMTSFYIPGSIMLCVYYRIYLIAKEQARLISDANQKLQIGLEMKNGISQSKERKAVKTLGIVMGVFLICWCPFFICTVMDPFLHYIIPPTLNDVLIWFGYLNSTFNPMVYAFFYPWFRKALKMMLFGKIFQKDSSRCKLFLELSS

[7] = molecular target: T3, Trace amine-associated receptor 1; assay: Fluorescence-based cell-based high throughput dose response assay to identify agonists of the human trace amine associated receptor 1 (TAAR1).; type: functional
cells [8] = type: functional, cell-based
cells [9] = type: functional, cell-based; remark: listed apart in the source

Compound	IC50 [6]	EC50 [7]	EC50 (cells [8])	IC50 (cells [9])	also measured
COc1cc(C(C)=O)ccc1OCC(O)CN1CCN(c2ccccn2)CC1 (stereo not drawn)	–	–	–	–	EC50 [1]: 0.321 µM (active); EC50 (Mu-type opioid receptor): 92.5 µM (inactive)
CC1CCc2sc3nc(N4CCN(CCO)CC4)n4ncnc4c3c2C1 (stereo not drawn)	–	–	–	–	EC50 (H4): 34.7 µM (active); AC50 [2]: 34.7 µM (active); EC50 [3]: 8.04 µM (active); EC50 [4]: 24.7 µM (active)
COc1cc2nc(Nc3ccc(F)cc3)nc(N)c2cc1OC	–	–	–	–	AC50 [5]: 7.26 µM (active); AC50 [2]: 49.9 µM (active); IC50 (H9c2): > 79 µM (inactive)
CC(N)Cc1ccc(O)cc1 (stereo not drawn) [HYDROXYAMPHETAMINE HYDROBROMIDE]	11.8 µM (inactive) and 5.84 µM (active)	1.71 µM (active) and 1.18 µM (active)	> 29.9 µM (inactive)	> 29.9 µM (inactive)	–
Clc1ccc(CN2CCN(c3ncccn3)CC2)c(Cl)c1	–	–	–	–	EC50 [1]: 1.29 µM (active); EC50 (Mu-type opioid receptor): 92.5 µM (inactive)
COc1cc(C2c3cc4c(cc3OC(NCCc3ccccc3)C2C)OCO4)cc(OC)c1OC (stereo not drawn)	261 nM (active)	23.9 nM (active)	> 29.9 µM (inactive)	> 29.9 µM (inactive)	–
O=C(NCCc1ccccc1)c1nc2nc(-c3cccs3)cc(C(F)(F)F)n2n1	1910 nM (active)	346 nM (active)	> 29.9 µM (inactive)	24.1 µM (inactive)	–
